# According to patent US20250368640A1 (BIOFRONT LTD, priority 2022, published 2025):
# Tests used:
# MEK 1/2 = MEK 1/2 degradation assay (western blot); type: cell-based, human; details: protein degradation, MV-411 or IMR32 cells
# Description: MEK 1/2 Degradation Assay
# (§1) MV-411 cells were cultured with medium (IMDM) and IMR32 cells were cultured with medium (MEM) prior to use. Cells were then incubated with a variety of concentrations of compound. After incubation, the cells were collected and lysed. The protein concentration was determined by BCA protein assay kit from Thermo (23227). The […] protein level was determined by western blots, using anti-human MEK 1/2 polyclonal antibody from CST (9122S). Proteins were loaded into each well of the pre-casting gels and subjected to electrophoretic separation by SDS-PAGE. The protein resolved by SDS-PAGE were transferred to PVDF, blocked by 5% skim milk, and probed with anti-human MEK1/2 antibody or β-actin antibody from CST (3700S) and COX IV antibody from CST (4850S), using standard western blotting procedure.
# Aurora A [1] = molecular target: T1, Aurora A (Homo sapiens (Human), UniProt O14965); assay: Aurora A enzyme inhibition assay; type: biochemical
# Description: Aurora A Enzyme Inhibition Assay
# (§2) The compound was dissolved in 100% DMSO at the concentration of 10 mM. The Aurora A protein was purchased from Carna (05-101). 10 μL per well of 2.5×Aurora A protein was added to assay plate containing the test compound, centrifuged at 1000 rpm for 1 minute, and then incubated at 25° C. for 10 minutes. Peptide 21 was purchased from GL Biochem (116370) and ATP was purchased from Promega (V9102). The two were added 15 μL per well mixture of 1.67× peptide 21 (final conc. is 3 μM) and ATP (final conc. is 14.58 μM), centrifuged at 1000 rpm for 1 minute, then incubated at 25° C. for 40 minutes. Then added 30 μL of stop buffer (100 mM HEPES pH7.5, 0.015% Brij-35, 0.2% Coating Reagent 3, 50 mM EDTA) to the assay plate and centrifuged at 1000 rpm for 1 minute. the product was determined. Based on the results, the IC50 value of the compound was calculated.
# HPK1 [2] = molecular target: T2, HPK1 (Homo sapiens (Human), UniProt Q92918); assay: HPK1 enzyme inhibition assay (ADP-Glo); type: biochemical
# Description: HPK1 Enzyme Inhibition Assay
# The compound was dissolved in 100% DMSO at the concentration of 10 mM. The HPK1 protein was purchased from Signal Chem (M23-11G-10). 2.5 μL per well of 2×HPK1 protein was added to assay plate containing the test compound, centrifuged at 1500 rpm for 1 minute, and then incubated at 25° C. for 60 minutes. MBP protein was purchased from Signal Chem (M42-51N) and ATP was purchased from Promega (V9102). The two were added 2.5 μL per well mixture of 2×MBP (0.2 ug/ul) and ATP (20 μM), centrifuged at 1500 rpm for 1 minute, then incubated at 25° C. for 60 minutes. Then added 5 μL of ADP-Glo from Promega (V9102) to the assay plate and depleted the unconsumed ATP for 60 minutes. Then centrifuged at 1500 rpm for 1 minute and incubated at 25° C. for 60 minutes. Finally, 10 μL of the kinase assay reagent from Promega (V9102) was added to the assay plate to convert ADP to ATP, centrifuged at 1500 rpm for 1 minute, incubate at 25° C. for 40 minutes. After 40 minutes incubation, the […] was determined. Based on the results, the IC50 value of the compound was calculated.
# Target sequence in this assay (Q92918 1-346 limits assumed): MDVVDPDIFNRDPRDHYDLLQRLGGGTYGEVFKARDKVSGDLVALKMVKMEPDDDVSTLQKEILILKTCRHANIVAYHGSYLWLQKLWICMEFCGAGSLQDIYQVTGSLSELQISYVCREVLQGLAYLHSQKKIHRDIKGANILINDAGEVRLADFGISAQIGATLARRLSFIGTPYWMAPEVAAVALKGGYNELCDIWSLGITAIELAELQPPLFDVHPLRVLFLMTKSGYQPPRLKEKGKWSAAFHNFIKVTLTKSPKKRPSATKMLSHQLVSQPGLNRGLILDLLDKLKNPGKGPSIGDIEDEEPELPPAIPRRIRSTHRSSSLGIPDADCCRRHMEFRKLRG
# FLT3 = FLT3 degradation assay (western blot, MV-411 cells); type: cell-based, human; details: protein degradation, class symbol, read-out: FLT3 DC50 (nM)/Dmax (%)
# Description: as §1, with “(IMDM)” for “(IMDM) and IMR32 cells were cultured with medium (MEM)”, “FLT3 monoclonal” for “MEK 1/2 polyclonal”, “(3462S).” for “(9122S).”, “FLT3” for “MEK1/2”, “-actin” for “β-actin”, “(3700S),” for “(3700S) and COX IV antibody from CST (4850S),”
# Aurora A [3] = molecular target: T1, Aurora A; assay: Aurora A degradation assay (western blot); type: cell-based; details: protein degradation, IMR32, Huh7 or HL-60 cells
# Description: Aurora A Degradation Assay
# IMR32 cells were cultured with medium (MEM), Huh7 cells were cultured with medium (DMEM) and HL-60 cells were culture with medium (IMDM) prior to use. Cells were then incubated with a variety of concentrations of compound. After incubation, the cells were collected and lysed. The protein concentration was determined by BCA protein assay kit from Thermo (23227). The AURKA protein level was determined by western blots, using anti-human AURKA monoclonal antibody from CST (14475S). Proteins were loaded into each well of the pre-casting gels and subjected to electrophoretic separation by SDS-PAGE. The protein resolved by SDS-PAGE were transferred to PVDF, blocked by 5% skim milk, and probed with anti-human AURKA antibody or β-actin antibody from CST (3700S) or COX IV antibody from CST (4850S), using standard western blotting procedure.
# HPK1 [4] = molecular target: T2, HPK1; assay: HPK1 degradation assay (western blot, human PBMC); type: cell-based; details: protein degradation, human PBMC
# Description: Frozen human PBMC were purchased from Shanghai OribioTech and recovered with culture medium (RMPI1640) prior to use. The cells were then incubated with a variety of concentrations of compound. After incubation, the cells were collected and lysed. The protein concentration was determined by BCA protein assay kit from Thermo (23227). The HPK1 protein level was determined by western blots, using anti-human HPK1 polyclonal antibody from CST (4472S). Proteins were loaded into each well of the pre-casting gels and subjected to electrophoretic separation by SDS-PAGE. The protein resolved by SDS-PAGE were transferred to PVDF, blocked by 5% skim milk, and probed with anti-human HPK1 antibody or β-actin antibody from CST (3700S), using standard western blotting procedure.
# Target sequence in this assay (Q92918 whole entry): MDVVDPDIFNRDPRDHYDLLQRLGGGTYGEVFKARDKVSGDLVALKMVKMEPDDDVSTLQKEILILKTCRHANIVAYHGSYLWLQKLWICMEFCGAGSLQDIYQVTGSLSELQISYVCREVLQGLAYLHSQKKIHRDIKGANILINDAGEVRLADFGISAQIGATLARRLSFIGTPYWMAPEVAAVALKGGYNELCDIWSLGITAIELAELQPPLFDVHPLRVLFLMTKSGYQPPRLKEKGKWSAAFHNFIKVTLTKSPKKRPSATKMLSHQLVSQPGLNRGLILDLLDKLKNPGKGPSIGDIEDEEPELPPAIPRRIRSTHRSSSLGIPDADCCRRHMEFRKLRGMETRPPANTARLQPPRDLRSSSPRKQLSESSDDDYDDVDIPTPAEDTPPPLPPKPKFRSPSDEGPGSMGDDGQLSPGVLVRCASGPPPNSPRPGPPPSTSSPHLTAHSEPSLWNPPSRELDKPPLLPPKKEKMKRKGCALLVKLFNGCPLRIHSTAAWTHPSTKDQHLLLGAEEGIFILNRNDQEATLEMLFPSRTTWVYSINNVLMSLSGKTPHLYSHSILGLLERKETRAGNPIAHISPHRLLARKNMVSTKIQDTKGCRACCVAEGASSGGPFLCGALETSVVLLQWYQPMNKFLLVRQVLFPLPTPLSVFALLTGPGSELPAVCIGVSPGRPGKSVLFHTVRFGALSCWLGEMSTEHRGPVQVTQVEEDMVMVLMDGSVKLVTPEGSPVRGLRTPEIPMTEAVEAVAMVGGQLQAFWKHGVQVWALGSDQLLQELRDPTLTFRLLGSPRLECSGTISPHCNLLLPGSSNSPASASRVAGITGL
# FLT3-ITD = FLT3-ITD (Homo sapiens, UniProt P36888); assay: FLT3-ITD enzyme inhibition assay; type: biochemical; details: enzyme inhibition
# Description: FLT3-ITD Enzyme Inhibition Assay
# as §2, with “FLT3-ITD” for “Aurora A”, “Invitrogen (PV6191).” for “Carna (05-101).”, “2.5×FLT3-ITD” for “2.5×Aurora A”, “2” for “21”, “(112394)” for “(116370)”, “97.2” for “14.58”
# T1 sequence (O14965 whole entry): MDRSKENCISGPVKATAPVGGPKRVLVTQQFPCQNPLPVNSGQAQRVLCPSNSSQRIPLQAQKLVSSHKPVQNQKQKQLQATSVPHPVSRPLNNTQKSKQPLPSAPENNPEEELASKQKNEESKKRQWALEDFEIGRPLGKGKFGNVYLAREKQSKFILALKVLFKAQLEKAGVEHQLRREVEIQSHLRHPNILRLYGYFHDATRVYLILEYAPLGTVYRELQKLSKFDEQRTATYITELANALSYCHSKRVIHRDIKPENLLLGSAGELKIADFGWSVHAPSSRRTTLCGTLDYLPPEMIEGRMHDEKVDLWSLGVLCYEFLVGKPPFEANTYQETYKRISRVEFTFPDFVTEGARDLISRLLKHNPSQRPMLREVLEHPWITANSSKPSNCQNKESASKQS
# FLT3-ITD, sequence (P36888 whole entry, looked up, change not shown): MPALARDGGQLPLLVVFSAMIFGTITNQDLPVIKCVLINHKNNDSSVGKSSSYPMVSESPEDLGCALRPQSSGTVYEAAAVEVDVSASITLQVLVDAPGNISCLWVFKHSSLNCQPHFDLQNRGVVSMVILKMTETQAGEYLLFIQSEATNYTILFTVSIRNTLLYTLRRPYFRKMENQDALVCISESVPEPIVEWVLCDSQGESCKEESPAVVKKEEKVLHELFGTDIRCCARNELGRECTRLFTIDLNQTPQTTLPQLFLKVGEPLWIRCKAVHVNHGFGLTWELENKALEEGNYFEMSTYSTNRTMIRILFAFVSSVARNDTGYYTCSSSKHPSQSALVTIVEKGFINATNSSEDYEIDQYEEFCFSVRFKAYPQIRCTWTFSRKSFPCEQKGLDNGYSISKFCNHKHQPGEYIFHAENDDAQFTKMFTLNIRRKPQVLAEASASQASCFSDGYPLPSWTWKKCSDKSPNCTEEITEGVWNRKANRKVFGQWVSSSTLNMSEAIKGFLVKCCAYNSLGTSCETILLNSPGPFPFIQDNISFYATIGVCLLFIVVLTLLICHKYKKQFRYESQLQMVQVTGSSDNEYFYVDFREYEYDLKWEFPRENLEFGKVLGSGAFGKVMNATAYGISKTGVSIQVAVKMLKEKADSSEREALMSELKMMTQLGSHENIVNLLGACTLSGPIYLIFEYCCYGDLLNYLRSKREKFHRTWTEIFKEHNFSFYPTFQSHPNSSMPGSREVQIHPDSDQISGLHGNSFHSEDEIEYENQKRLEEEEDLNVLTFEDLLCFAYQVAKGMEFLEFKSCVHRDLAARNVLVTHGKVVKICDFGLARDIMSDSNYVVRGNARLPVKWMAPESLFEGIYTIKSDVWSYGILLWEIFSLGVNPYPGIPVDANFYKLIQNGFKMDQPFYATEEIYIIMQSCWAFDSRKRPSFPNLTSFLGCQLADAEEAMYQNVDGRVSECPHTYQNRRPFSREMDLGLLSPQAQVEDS
smiles,measurement,setting,value
"CCc1c[nH]c2ncc(-c3cccc(N4CCCN(CCN5CCN(c6cc7c(cc6F)C(=O)N(C6CCC(=O)NC6=O)C7)CC5)C4=O)c3)c(Cl)c12 (stereo not shown) [Example 7, 3-(5-(4-(2-(3-(3-(4-chloro-3-ethyl-1H-pyrrolo [2,3-b]pyridin-5-yl)phenyl)-2-oxotetrahydropyrimidin-1 (2H)-yl)ethyl)piperazin-1-yl)-6-fluoro-1-oxoisoindolin-2-yl) piperidine-2,6-dione]",MEK 1/2 Dmax,MEK 1/2,37%
same,DC50,MEK 1/2; read-out: MEK 1/2 DC50,264 nM
same,IC50,Aurora A [1],10.6 nM
same,IC50,HPK1 [2],10.5 nM
same,DC50,FLT3,> 10000 nM
same,Aurora A Dmax,Aurora A [3],50%
same,DC50,Aurora A [3]; read-out: Aurora A DC50,5 nM
same,HPK1 Dmax,HPK1 [4],60%
same,DC50,HPK1 [4]; read-out: HPK1 DC50,12 nM
same,IC50,FLT3-ITD,12.3 nM
